Test results taken from patent US11566007B2, “Ras inhibitors” (Revolution Medicines, Inc., priority 2019, dated 2023).

Legend:
[1] = test system: NCI-H358 cells (K-Ras G12C); assay: Potency assay: pERK in NCI-H358 cells; assay type: cell-based, human; settings: Homo sapiens, NCI-H358; H358 KRAS G12C; read-out: pERK EC50
In short: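 4 h cpd, 37 °C; 10-pt 3-fold series, 10 mM DMSO top stock, duplicates. Readout pERK: AlphaLISA SureFire Ultra or In-Cell Western (IR-800CW secondary, DRAQ5 DNA stain). IC50, 4-PL fit vs log conc.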

K-Ras G12C = K-Ras G12C (Homo sapiens (Human), UniProt P01116+P62937, G12C); assay: Ras-Raf (BRAF RBD) disruption / FRET / MOA assay, KRAS G12C; assay type: biochemical; settings: KRAS G12C; Ras-Raf disruption/FRET/MOA assay; read-out: IC50* KRAS G12C FRET data
In short: (§1)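 Ternary complex formation (Ras–compound–cyclophilin A) displacing BRAF RBD, monitored by TR-FRET. Three hours at 25° C with compound (top 30 μM final), then 1.5 h with the labelled antibodies. Lower ratio than DMSO indicates disruption; IC50 reported.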

K-Ras G13C = K-Ras G13C (Homo sapiens (Human), UniProt P01116+P62937, G13C); assay: Ras-Raf (BRAF RBD) disruption / FRET / MOA assay, KRAS G13C; assay type: biochemical; settings: KRAS G13C; Ras-Raf disruption/FRET/MOA assay; read-out: IC50* KRAS G13C FRET data
In short: as §1

KRAS G12D = KRAS G12D (Homo sapiens (Human), UniProt P01116+P62937, G12D); assay: Ras-Raf (BRAF RBD) disruption / FRET / MOA assay, KRAS G12D; assay type: biochemical; settings: Ras-Raf disruption/FRET/MOA assay; class symbols; read-out: KRAS G12D FRET data IC50
In short: as §1

KRAS G12V = KRAS G12V (Homo sapiens (Human), UniProt P01116+P62937, G12V); assay: Ras-Raf (BRAF RBD) disruption / FRET / MOA assay, KRAS G12V; assay type: biochemical; settings: read-out: IC50* KRAS G12V FRET data
In short: as §1

KRAS G13D = KRAS G13D (Homo sapiens (Human), UniProt P01116+P62937, G13D); assay: Ras-Raf (BRAF RBD) disruption / FRET / MOA assay, KRAS G13D; assay type: biochemical; settings: read-out: IC50* KRAS G13D FRET data
In short: as §1

NRAS Q61R = NRAS Q61R (Homo sapiens (Human), UniProt P01111+P62937, Q61R); assay: Ras-Raf (BRAF RBD) disruption / FRET / MOA assay, NRAS Q61R; assay type: biochemical; settings: NRAS Q61R; Ras-Raf disruption/FRET/MOA assay; read-out: IC50* NRAS Q61R FRET data
In short: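 Compounds were tested as a 10-point 3-fold dilution series from 30 μM final for their ability to drive ternary complex formation between nucleotide-loaded Ras and cyclophilin A, displacing the BRAF RBD. After 3 h at 25° C., anti-His Eu-W1024 (10 nM) and anti-GST allophycocyanin (50 nM) were added for 1.5 h. A TR-FRET ratio decrease versus DMSO gave IC50.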

KRAS G12D, sequence (P01116-2 other isoform, or with tags, fused parts or gaps G12D): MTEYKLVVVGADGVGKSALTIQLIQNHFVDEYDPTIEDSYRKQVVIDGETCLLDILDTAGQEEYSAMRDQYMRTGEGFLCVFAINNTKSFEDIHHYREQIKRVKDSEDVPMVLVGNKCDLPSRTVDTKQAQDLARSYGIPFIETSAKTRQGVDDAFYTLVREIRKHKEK
KRAS G12D, sequence (P62937 whole entry): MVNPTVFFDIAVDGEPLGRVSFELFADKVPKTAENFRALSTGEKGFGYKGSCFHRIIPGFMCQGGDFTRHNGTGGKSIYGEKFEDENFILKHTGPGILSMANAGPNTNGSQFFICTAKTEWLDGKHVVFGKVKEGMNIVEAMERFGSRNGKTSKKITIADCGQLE
K-Ras G12C, sequence (P01116-2 other isoform, or with tags, fused parts or gaps G12C): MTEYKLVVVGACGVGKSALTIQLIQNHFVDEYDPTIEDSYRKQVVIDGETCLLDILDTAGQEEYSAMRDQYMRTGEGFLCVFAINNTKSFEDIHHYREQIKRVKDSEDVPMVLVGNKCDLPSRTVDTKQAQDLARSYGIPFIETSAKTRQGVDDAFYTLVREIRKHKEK
K-Ras G12C, sequence (P62937 whole entry): as the sequence (P62937 whole entry) above
KRAS G12V, sequence (P01116-2 other isoform, or with tags, fused parts or gaps G12V): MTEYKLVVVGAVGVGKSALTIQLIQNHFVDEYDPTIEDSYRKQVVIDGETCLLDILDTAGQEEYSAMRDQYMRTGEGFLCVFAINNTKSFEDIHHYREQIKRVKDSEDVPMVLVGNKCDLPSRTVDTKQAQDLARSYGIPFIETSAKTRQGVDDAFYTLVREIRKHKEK
KRAS G12V, sequence (P62937 whole entry): as the sequence (P62937 whole entry) above
NRAS Q61R, sequence (P01111 whole entry Q61R): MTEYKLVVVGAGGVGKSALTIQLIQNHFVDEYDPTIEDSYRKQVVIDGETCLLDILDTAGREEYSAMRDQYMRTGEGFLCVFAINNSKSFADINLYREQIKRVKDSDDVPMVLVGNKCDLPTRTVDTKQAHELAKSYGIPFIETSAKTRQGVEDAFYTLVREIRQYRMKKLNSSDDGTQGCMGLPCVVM
NRAS Q61R, sequence (P62937 whole entry): as the sequence (P62937 whole entry) above
K-Ras G13C, sequence (P01116-2 other isoform, or with tags, fused parts or gaps G13C): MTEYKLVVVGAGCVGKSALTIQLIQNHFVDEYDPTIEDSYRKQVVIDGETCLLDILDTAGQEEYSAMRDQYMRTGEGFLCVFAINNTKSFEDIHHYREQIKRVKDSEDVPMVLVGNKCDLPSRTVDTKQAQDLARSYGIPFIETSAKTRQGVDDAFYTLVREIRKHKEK
K-Ras G13C, sequence (P62937 whole entry): as the sequence (P62937 whole entry) above
KRAS G13D, sequence (P01116-2 other isoform, or with tags, fused parts or gaps G13D): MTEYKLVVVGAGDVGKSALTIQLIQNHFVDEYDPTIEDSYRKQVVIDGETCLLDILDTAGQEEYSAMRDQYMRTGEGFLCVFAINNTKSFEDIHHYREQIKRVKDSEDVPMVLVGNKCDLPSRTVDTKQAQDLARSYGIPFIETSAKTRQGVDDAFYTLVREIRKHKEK
KRAS G13D, sequence (P62937 whole entry): as the sequence (P62937 whole entry) above

Compound | EC50 [1] | IC50 (K-Ras G12C) | IC50 (K-Ras G13C) | IC50 (KRAS G12D) | IC50 (KRAS G12V) | IC50 (KRAS G13D) | IC50 (NRAS Q61R)
C=CS(=O)(=O)N1CC[C@H](C(=O)N(C)[C@H](C(=O)N[C@H]2Cc3cc(O)cc(c3)-c3ccc4c(c3)c(c(-c3cncnc3)n4CC)CC(C)(C)COC(=O)[C@@H]3CCCN(N3)C2=O)C(C)C)C1 [Example A172] | < 5 µM | 10 to 100 nM | 10 to 100 nM | > 10000 nM | 1000 to 10000 nM | > 10000 nM | > 10000 nM
CCn1c(-c2cccnc2[C@H](C)OC)c2c3cc(ccc31)-c1cccc(c1)C[C@H](NC(=O)[C@H](C(C)C)N1CC[C@@]3(CCN(C(=O)C#C[C@@H]4COCCN4C4COC4)C3)C1=O)C(=O)N1CCC[C@H](N1)C(=O)OCC(C)(C)C2 [Example A566] | < 5 µM | 10 to 100 nM | 100 to 1000 nM | 1000 to 10000 nM | 1000 to 10000 nM | 1000 to 10000 nM | 1000 to 10000 nM
C=CC(=O)N1CCC2(C1)CN(C(=O)N(C)[C@H](C(=O)N[C@H]1Cc3nc(cs3)-c3ccc4c(c3)c(c(-c3cccnc3[C@H](C)OC)n4CC(F)(F)F)CC(C)(C)COC(=O)[C@@H]3CCCN(N3)C1=O)C(C)C)C2 [Example A603] | < 5 µM | 10 to 100 nM | 10 to 100 nM | 100 to 1000 nM | 100 to 1000 nM | 100 to 1000 nM | 10 to 100 nM
CCn1c(-c2cccnc2[C@H](C)OC)c2c3cc(ccc31)-c1cccc(c1)C[C@H](NC(=O)[C@H](C(C)C)N(C)C(=O)N1CCC13CN(C(=O)C#CC(C)(C)N(C)C)C3)C(=O)N1CCC[C@H](N1)C(=O)OCC(C)(C)C2 [Example A672] | < 5 µM | 10 to 100 nM | 100 to 1000 nM | 1000 to 10000 nM | 100 to 1000 nM | 100 to 1000 nM | 100 to 1000 nM
C=CC(=O)N(C)[C@H]1CC1N(C)C(=O)N(C)[C@H](C(=O)N[C@H]1Cc2nc(cs2)-c2ccc3c(c2)c(c(-c2cccnc2[C@H](C)OC)n3CC)CC(C)(C)COC(=O)[C@@H]2CCCN(N2)C1=O)C(C)C (some centres unmarked) [Example A738] | < 5 µM | 100 to 1000 nM | 100 to 1000 nM | 1000 to 10000 nM | 1000 to 10000 nM | 1000 to 10000 nM | 100 to 1000 nM
